Assay results reported in US5922875A, “Aromatic acid diamides with antigastrin activity, a method for their preparation and their pharmaceutical use” (Rotta Research Laboratorium S.p.A., priority 1995, dated 1999).
Read-outs that look alike come from different tables or passages of the source.

Columns and labels:
central CCK-B receptor = biological target: T1, central CCK-B receptor (Cavia porcellus, UniProt H0VZC5); experiment: Inhibition of binding of [3H][N-methyl-N-leucine]CCK-8 to guinea pig cortical membranes (anti-CCK-B in vitro)
T1 construct: The cerebral cortices of male albino guinea pigs were therefore used; from tissue; host or cells: cerebral cortex membranes of male albino guinea pigs
T1 sequence (H0VZC5 1-426): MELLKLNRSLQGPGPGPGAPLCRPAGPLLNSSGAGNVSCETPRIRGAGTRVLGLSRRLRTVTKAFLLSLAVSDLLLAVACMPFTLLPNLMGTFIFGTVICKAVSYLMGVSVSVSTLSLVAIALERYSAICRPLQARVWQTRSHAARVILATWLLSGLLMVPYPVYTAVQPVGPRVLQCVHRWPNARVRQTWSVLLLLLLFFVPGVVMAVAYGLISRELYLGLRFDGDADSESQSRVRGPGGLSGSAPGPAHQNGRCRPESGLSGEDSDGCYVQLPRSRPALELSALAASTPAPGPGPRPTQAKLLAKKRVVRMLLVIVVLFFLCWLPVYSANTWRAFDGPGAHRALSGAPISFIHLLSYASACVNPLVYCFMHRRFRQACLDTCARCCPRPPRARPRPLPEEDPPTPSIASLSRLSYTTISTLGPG
Description: The capacity of the compounds which are the subject of the invention to interact with the central CCK-B receptor was evaluated with the use of [3-H][N-methyl-N-leucine]CCK-8. […] The cerebral cortices of male albino guinea pigs were therefore used, the method given above being followed with slight modifications [Makovec et al.; Bioorganic & Med. Chem. Letters 3 (5)(1993), 861-866] so as to give a membrane content corresponding to about 300 mcg of protein/mL.

[1] = test system: acid secretion induced by pentagastrin; experiment: In vivo gastric anti-secretory activity in the anaesthetised rat, pentagastrin stimulation; conditions: for ED50: iv, read-out: Activity (ID50); for times more powerful than CR 2194 / times more powerful than cimetidine: ID50 comparison, rat I.V.
Description: Gastric secretion was stimulated by pentagastrin and the method of Lai [Gut 5, (1964), 327-341] was used with slight modifications [Makovec et al, J.Med.Chem. 35 (1992), 28-38].
Pentagastrin dissolved in physiological saline was perfused for 120 minutes at a rate of 30 mcg/kg/h. After 60 minutes of perfusion (basal stimulation), the product to be tested was administered intravenously (I.V.) in bolus form, perfusion of the stimulant continuing for the remaining 60 minutes. The activity of the product was evaluated as the percentage reduction in acid secreted after the administration of the product with respect to the basal acidity measured in the first 60 minutes, during which time only pentagastrin was present.
The antagonists tested were administered at different doses in such a way as to enable the ID50 to be calculated, that is, the dose (in mg/kg I.V.) capable of inhibiting the effect of pentagastrin by 50%.

CCK-B receptors = conditions: guinea pigs, Knapp et al. 1990; cited from earlier work
[2] = biological target: T2, type-B cholecystokynin (CCK-B) or gastrin receptors (Oryctolagus cuniculus, UniProt P46627); experiment: Inhibition of the gastrin-induced increase of cytosolic calcium in rabbit gastric mucosa cells; type: cell-based
T2 construct: rabbit gastric mucosa cells were prepared by conventional techniques; endogenous in cells; host or cells: freshly isolated rabbit gastric mucosa cells (collagenase/pronase digestion)
T2 sequence (P46627 1-452): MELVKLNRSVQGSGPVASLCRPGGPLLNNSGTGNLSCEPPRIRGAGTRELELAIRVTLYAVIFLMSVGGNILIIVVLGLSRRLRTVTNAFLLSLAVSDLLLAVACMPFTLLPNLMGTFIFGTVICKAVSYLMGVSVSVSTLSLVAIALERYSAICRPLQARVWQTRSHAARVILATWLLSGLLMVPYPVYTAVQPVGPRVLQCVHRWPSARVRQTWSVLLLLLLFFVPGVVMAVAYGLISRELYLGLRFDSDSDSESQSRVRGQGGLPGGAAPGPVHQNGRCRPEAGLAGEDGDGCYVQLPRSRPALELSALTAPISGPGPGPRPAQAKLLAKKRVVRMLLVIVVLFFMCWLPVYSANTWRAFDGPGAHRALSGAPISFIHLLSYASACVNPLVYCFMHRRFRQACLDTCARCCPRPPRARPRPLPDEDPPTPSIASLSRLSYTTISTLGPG
Excerpt: The parietal cells of the gastric mucosa are responsible for the secretion of HCl. They present specific membrane receptors which may be activated by gastrin and which have been defined as type-B cholecystokynin (CCK-B) or gastrin receptors.
Since it has been observed that the activation of the CCK-B receptors by gastrin results in a raising of the levels of cytosolic calcium ions, a technique has been used for measuring the increase in intracellular calcium induced by gastrin in the presence and absence of the compounds which are the subject of the invention, as an index of the anti-gastrin activity of the compounds themselves.
Suspensions (0.8×10^6 /ml) of rabbit gastric mucosa cells were prepared by conventional techniques with the use of collagenase and pronase as digestive enzymes; the estimation of the [Ca^2+ ]i values, basal or achieved after stimulation of the cell system was carried out in accordance with Grynkiewicz et al [J.Biol.Chem 260 (1985), 3440]. In the control samples the cells were stimulated with […] while in the samples in which the effect of the compounds in question was evaluated, the cells were incubated therewith before stimulation with gastrin. The results are expressed as percentage increases in [Ca^2+ ]i with respect to the control value. The anti-gastrin activity of the compounds was expressed as the IC50 value, that is, the concentration (in μmoles/liter) at which the response to the stimulus induced by the gastrin was reduced by 50%. The results thus obtained for several compounds of the invention are given in Table 3 which also gives an index formed from the ratio between the peripheral anti-gastrin activity just described and the displacement activity derived from the study of binding to the cortical receptors of guinea pigs described above.

[3] = biological target: T3, cholecystokynin receptor (CCK-A) (Cavia porcellus, UniProt Q63931); experiment: Anti-CCK-A activity, guinea pig gall bladder stimulated in vitro by CCK-8; conditions: selectivity CCK-B vs CCK-A
T3 construct: The experimental model used was the guinea pig gall bladder stimulated in vitro by CCK-8; from tissue; host or cells: guinea pig gall bladder in vitro
T3 sequence (Q63931 1-430): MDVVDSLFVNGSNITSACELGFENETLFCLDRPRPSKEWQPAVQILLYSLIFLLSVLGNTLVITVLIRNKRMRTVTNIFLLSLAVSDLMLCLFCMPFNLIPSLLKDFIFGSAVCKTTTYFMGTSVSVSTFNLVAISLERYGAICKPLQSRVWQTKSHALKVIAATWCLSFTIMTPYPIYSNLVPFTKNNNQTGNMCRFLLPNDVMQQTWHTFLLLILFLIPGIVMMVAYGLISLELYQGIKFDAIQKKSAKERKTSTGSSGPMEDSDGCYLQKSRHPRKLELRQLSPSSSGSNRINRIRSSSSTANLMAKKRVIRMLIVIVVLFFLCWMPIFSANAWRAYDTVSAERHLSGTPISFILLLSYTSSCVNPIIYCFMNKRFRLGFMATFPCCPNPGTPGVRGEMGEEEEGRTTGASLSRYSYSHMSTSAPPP
Excerpt: The experimental model used was the guinea pig gall bladder stimulated in vitro by CCK-8 according to the method described by Makovec et al. [(Arzneim. Forsch/Drug. Res. 35 (7), 1048-1051 (1985)].

rats = experiment: Anxiolytic activity, elevated plus-maze in rats; type: in vivo, rat
Description: It has in fact recently been postulated that the central CCK-B receptor plays an important role in anxiety. This accords with studies also carried out in man which have shown that the central CCK-B mechanisms have an important function in the mediation of panic attacks [Bradwejn, J.et al; J.Psychopharmacology 6 (1992), 345]. In order to confirm this hypothesis, the anxiolytic activities of several of the most powerful CCK-B antagonists of the invention were evaluated by the method of the "elevated plus-maze" in rats, carried out in accordance with Pellow et al. [J. of Neurosc. Meth. 14(1985), 149-167]. A labyrinth was used in which the length of the cross arm was about 45 cm placed at a height from the ground of 70 cm. On this experimental model, a compound having anxiolytic activity produces a percentage increase in the stay time in the open arms and a percentage increase in the number of entries into the open arms.
The results obtained are given in Table 5 below where the activities obtained with different doses of the compound 4 administered intraperitoneally (IP) are given in comparison with a group of animals treated with a physiological saline in the same way.

[4] = displacement of [3H][N-methyl-N-leucine]CCK-8, cortical membrane in guinea pigs, read-out: IC50
[5] = I.V. bolus, rat, pentagastrin perfusion
[6] = cells stimulated with 5×10^-8 gastrin, [Ca2+]i

## O=C(O)CC(CC(=O)Nc1cc2ccccc2cc1C(=O)N1CCC2(CC1)OCCO2)c1cccc2ccccc12 (stereo not drawn) [Compound 14]
Central CCK-B receptor
  IC50: 1.08 µM
[1]; Rattus norvegicus
  ED50: 7.9 mg/kg

## [3-H][N-methyl-N-leucine]CCK-8
CCK-B receptors
  affinity times higher for the receptors of the cortex (CCK-B) than those of the pancreas (CCK-A): about 4000 times

## CSCC[C@H](NC(=O)[C@H](Cc1c[nH]c2ccccc12)NC(=O)CCNC(=O)OC(C)(C)C)C(=O)N[C@@H](CC(=O)O)C(=O)N[C@@H](Cc1ccccc1)C(N)=O [Pentagastrin, reference compound]
Central CCK-B receptor; [4]
  IC50: 0.003 µM

## O=C(O)CCC(NC(=O)c1cccc2ccccc12)C(=O)Nc1cccc(C(=O)N2CCC3(CCCC3)CC2)c1 (stereo not drawn) [Compound 12]
Central CCK-B receptor; [4]
  IC50: > 1 µM
[1]; [5]
  ED50: > 10 mg/kg

## O=C(O)CC(CC(=O)Nc1cc2ccccc2cc1C(=O)N1CCC2(CCCCC2)CC1)c1cccc2ccccc12 (stereo not drawn) [Compound 18]
Central CCK-B receptor; [4]
  IC50: 0.661 µM
[2]; [6]
  IC50: 0.105 µM

## CN(C(=O)CC(CC(=O)O)c1cccc2ccccc12)c1ccccc1C(=O)N1CCC2(CCCC2)CC1 (stereo not drawn) [Compound 17]
Central CCK-B receptor; [4]
  IC50: > 1 µM

## COc1cc(NC(=O)CC(CC(=O)O)c2cccc3ccccc23)c(C(=O)N2CCC3(CCCC3)CC2)cc1OC (stereo not drawn) [Compound 10]
Central CCK-B receptor; [4]
  IC50: 0.82 µM
[2]; [6]
  IC50: > 0.3 µM

## Cc1cc(C)c(NC(=O)CC(CC(=O)O)c2cccc(Cl)c2)c(C(=O)N2CCC3(CCCC3)CC2)c1 (stereo not drawn) [Compound 16]
Central CCK-B receptor; [4]
  IC50: 0.395 µM
[2]; [6]
  IC50: 0.082 µM

## Cc1ccc(NC(=O)CC(CC(=O)O)c2cccc3ccccc23)c(C(=O)N2CCC3(CCCC3)CC2)c1 (stereo not drawn) [Compound 3]
Central CCK-B receptor; [4]
  IC50: 0.188 µM
[2]; [6]
  IC50: 0.03 µM

## Cc1cc(C)c(NC(=O)CC(CC(=O)O)c2cccc3ccccc23)c(C(=O)N2CCC3(CCCC3)CC2)c1 (stereo not drawn) [Compound 4]
Central CCK-B receptor; [4]
  IC50: 0.024 µM
Central CCK-B receptor; ratio of binding IC50 values
  times less active than pentagastrin: 8 times
[2]; [6]
  IC50: 0.004 µM
[2]; gastrin-induced [Ca2+]i in rabbit gastric mucosa cells
  IC50: 0.004 µM
[1]
  times more powerful than CR 2194: 10-50 times
  times more powerful than cimetidine: 2-10 times
[1]; [5]
  ED50: 0.2 mg/kg
[3]
  affinity times higher for the gastrin receptor (CCK-B) than for the cholecystokynin receptor (CCK-A): at least 300 times
rats; 0.03 mg/kg I.P., rat
  % Effect VS controls (time): 10.4%
  % Effect Vs controls (entries): 19.3%
  Entries to open arm/total entries (%): 36.4%
  Time in open arm/total time (%): 21.1%
rats; 0.3 mg/kg I.P., rat
  % Effect VS controls (time): 47.9%
  % Effect Vs controls (entries): 39.3%
  Entries to open arm/total entries (%): 42.5%
  Time in open arm/total time (%): 28.2%
rats; 0.3 mg/kg I.P., significant vs saline controls
  percentage stay time in the open arms compared with controls: increases the percentage stay time in the open arms
rats; 3.0 mg/kg I.P., rat
  % Effect VS controls (time): 4.2%
  % Effect Vs controls (entries): 11.5%
  Entries to open arm/total entries (%): 34.0%
  Time in open arm/total time (%): 19.9%
rats; dose range 0.03-3 mg/kg I.P.
  percentage number of entries into the open arm compared with the controls: increases the percentage number of entries into the open arm
rats; plus maze, rat, I.P.
  anxiolytic effect: displays an anxiolytic effect

## O=C(O)CC(CC(=O)Nc1cc2ccccc2cc1C(=O)N1CCC2(CCCC2)CC1)c1cccc2ccccc12 (racemic) [Compound 13, 3-(DL)-(1-naphthyl)-5-[2'-carbamoyl(8-azaspiro[4.5]dec-8-yl)]-3'-naphthylamino]-5-oxopentanoic acid]
Central CCK-B receptor; [4]
  IC50: 0.225 µM
[2]; [6]
  IC50: 0.037 µM
[1]
  times more powerful than CR 2194: 10-50 times
  times more powerful than cimetidine: 2-10 times
[1]; [5]
  ED50: 1 mg/kg

## CN/C(=N/CCSCc1nc[nH]c1C)NC#N [Cimetidine, cimetidine, reference compound]
[1]; [5]
  ED50: 2.5 mg/kg

## O=C(O)CC[C@@H](NC(=O)c1cc(Cl)cc(Cl)c1)C(=O)N1CCC2(CCCC2)CC1 [CR 2194, reference compound]
[1]; [5]
  ED50: 11 mg/kg

## O=C(O)CC(CC(=O)Nc1c(Cl)cccc1C(=O)N1CCC2(CCCC2)CC1)c1cccc2ccccc12 (stereo not drawn) [Compound 5]
[1]; [5]
  ED50: 2.6 mg/kg

## O=C(O)CC(CC(=O)Nc1cc(Cl)ccc1C(=O)N1CCC2(CCCC2)CC1)c1cccc2ccccc12 (stereo not drawn) [Compound 6]
Central CCK-B receptor; [4]
  IC50: 1.24 µM
[2]; [6]
  IC50: 0.14 µM
